# Laboratory results published in patent US20180169117A1, “PHARMACEUTICAL FORMULATION COMPRISING A SUBSTITUTED PHENYL - (1,3-DIHYDRO-ISOINDOL-2-YL) - METHANONE” (OTSUKA PHARMACEUTICAL CO., LTD., priority 2014, published 2018).
# Like-named read-outs stand apart in the source and are kept apart here.
# What was measured:
# MM-1 cells = conditions: 17-AAG treated MM-1 cells; Mitsiades et al. 2006; cited from earlier work
# [1] = tested on: Bortezomib refractory multiple myeloma cell lines; conditions: Mitsiades et al. 2006; cited from earlier work
# [2] = Effect of surfactant (polysorbate 80, Tween) on solubility in phosphate buffer pH 7.2 (Example 6); format: physicochemical; conditions: for increase in solubility on addition of Tween: physiological pH, 1-8 (w/v) Tween versus no Tween; for solubility: sodium phosphate buffer, 200 mM phosphate, read-out: Solubility of L-lactate salt of compound of formula (I)
# Experimental: Solutions of sodium phosphate buffer at a pH of 7.2 were prepared with and without polysorbate 80 (Tween) and the solubilities of the L-lactate salt of the compound of formula (I) were determined.
# physchem = format: physicochemical; conditions: for solubility thermodynamic / solubility: aqueous buffer, thermodynamic from solid, read-out: L-Lactate Salt of Compound of Formula (I) Concentration
# Experimental: Buffers were prepared using monobasic and dibasic salts of sodium phosphate in order to achieve the correct buffer concentrations and pH as follows:
# The pH of each buffer was the target pH±0.05. Minor adjustments with small amounts of dilute sodium hydroxide were made to both of the 200 mM buffers to meet this criterion.
# (§1) Aliquots of 1 g of the L-lactate salt of the compound of formula (I) were weighed into individual 20 ml scintillation vials and 10 ml of each buffer was added to a vial. An additional sample was prepared in deionised water. Samples were covered in aluminium foil to protect from light and mixed using a magnetic stirrer overnight.
# (§2) The appearance of each sample was recorded. Samples were transferred to centrifuge tubes and centrifuged at 3500rpm for 15 minutes. The samples prepared using the 200 mM buffers were visually free of undissolved material, but were centrifuged in order to make sure that all samples were treated the same. The supernatants were retained for determination of compound of formula (I) by UV and pH measurement.
# (§3) Assay by UV: A calibration curve was prepared using the L-lactate salt of the compound of formula (I) dissolved in deionised water and covering the range 0 to 0.10 mg/ml. Absorbance was determined at 286 nm. Samples were diluted as necessary using deionised water and absorbance determined at 286 nm versus a blank. The content of the compound of formula (I) was determined using the standard curve. All UV readings were taken in duplicate.
# [3] = Solubility in deionised water, acetate, succinate and citrate buffers (Example 5); format: physicochemical; conditions: thermodynamic from solid, read-out: Solubility L-lactate salt of compound of formula (I)
# Experimental: as §1, §2, §3
# In a manner analogous to Example 3, formulations were prepared of the L-lactate salt of the compound of formula (I) with acetate, succinate and citrate buffers at different concentrations and at different pH. As shown in the table below, neither the acetate nor citrate buffers were as useful as the phosphate buffer formulation of Example 3, but the succinate buffer gave good L-lactate salt solubility.
# K562 cells = conditions: Gone et al. 2002; cited from earlier work
# [4] = tested on: patients with advanced solid tumours; test: Phase I study, Two-Consecutive Day (QDx2) dosing schedule; format: in vivo, human
# HSP90 = test: Hsp90 inhibition (statement); format: biochemical; conditions: no value
# [5] = tested on: solid tumours refractory to standard therapy; conditions: cited from earlier work
# refractory solid tumours = conditions: including three GIST patients; Mahadevan et al. 2012; cited from earlier work
# [6] = tested on: vemurafenib sensitive and resistant models of melanoma; conditions: Rodriguez-Lopez et al., AACR 2012; cited from earlier work
smiles,measurement,setting,value
C=CCNC1=C2C[C@@H](C)C[C@H](OC)[C@H](O)[C@@H](C)/C=C(\C)[C@H](OC(N)=O)[C@@H](OC)/C=C\C=C(/C)C(=O)NC(=CC1=O)C2=O [17-AAG],cell surface levels of IGF-1R and IL-6R,MM-1 cells,diminished
same,proliferation,[1],potently inhibits proliferation
"CC(C)c1cc(C(=O)N2Cc3ccc(CN4CCN(C)CC4)cc3C2)c(O)cc1O.C[C@H](O)C(=O)O [(2,4-Dihydroxy-5-isopropyl-phenyl)-[5-(4-methyl-piperazin-1-ylmethyl)-1,3-dihydro-isoindol-2-yl]-methanone L-lactate salt]",increase in solubility on addition of Tween,[2],1.5 fold
same,increase in solubility on addition of Tween,[2]; listed as lactate salt of the compound of formula (I),approximately 1.5 fold
same,solubility,"[2]; aqueous buffer, pH 7.2, Tween 0 % (w/v)",21 mg/mL
same,solubility,"[2]; aqueous with cosolvent or surfactant or cyclodextrin, pH 7.2, Tween 1-8 % (w/v)",33 to 34 mg/mL
same,solubility thermodynamic,"physchem; sodium phosphate buffer 50 mM/pH 5.0, pH of supernatant 5.13",77.3 mg/mL
same,solubility thermodynamic,"physchem; sodium phosphate buffer 50 mM/pH 5.5, pH of supernatant 5.18",75.9 mg/mL
same,solubility,"physchem; sodium phosphate buffer 200 mM/pH 5.0 (fifth line of table), pH of supernatant 4.99",≥ 95.7 mg/mL
same,solubility,"physchem; sodium phosphate buffer 200 mM/pH 5.5, pH of supernatant 5.08",≥ 94.8 mg/mL
same,L-Lactate Salt of Compound of Formula (I) Concentration,"physchem; sodium phosphate buffer 100 mM/pH 5.5, pH of supernatant 5.10",86.3 mg/mL
same,L-Lactate Salt of Compound of Formula (I) Concentration,"physchem; sodium phosphate buffer 200 mM/pH 5.0 (third line of table), pH of supernatant 5.05",89.0 mg/mL
same,solubility,"[3]; acetate buffer, aqueous buffer, 50 mM Acetate pH 5.5, pH 4.87",24.4 mg/mL
same,solubility,"[3]; acetate buffer, aqueous buffer, 50 mM Acetate pH 6.0, pH 5.03",19.1 mg/mL
same,solubility,"[3]; citrate buffer, aqueous buffer, 50 mM Citrate pH 5.5, pH 5.23",85.6 mg/mL
same,solubility,"[3]; citrate buffer, aqueous buffer, 50 mM Citrate pH 6.0, pH 5.55",83.9 mg/mL
same,solubility,"[3]; succinate buffer, aqueous buffer, 50 mM Succinate pH 5.5, pH 5.38",78.3 mg/mL
same,solubility,"[3]; succinate buffer, aqueous buffer, 50 mM Succinate pH 6.0, pH 5.69",78.3 mg/mL
same,solubility,"[3]; succinate buffer, aqueous buffer, 100 mM Succinate pH 6.0, pH 5.76",89.9 mg/mL
same,solubility,"[3]; succinate buffer, pH 5.3, aqueous buffer, 100 mM Succinate pH 5.5, pH 5.30",89.2 mg/mL
same,solubility,"[3]; Deionised water, pH 5.52",59.5 mg/mL
Cc1ccc(NC(=O)c2ccc(CN3CCN(C)CC3)cc2)cc1Nc1nccc(-c2cccnc2)n1 [Gleevec],apoptosis,K562 cells,induces apoptosis
"CC(C)c1cc(C(=O)N2Cc3ccc(CN4CCN(C)CC4)cc3C2)c(O)cc1O [compound of formula (I), (2,4-Dihydroxy-5-isopropyl-phenyl)-[5-(4-methyl-piperazin-1-ylmethyl)-1,3-dihydro-isoindol-2-yl]-methanone]",tolerability,[4],well tolerated
same,HSP90 inhibition,HSP90,potent HSP90 inhibitor
same,"PET scan, metabolic activity of the tumour","[5]; GIST patient, 220 mg/m^2 weekly, before and after treatment, Shapiro 2011",substantial reduction in the metabolic activity of the tumour
same,stable disease for beyond 2 cycles of treatment,"[5]; twice weekly schedule, further patients, Shapiro et al. 2010",five of the original twenty one patients
same,stable disease for at least six months,"[5]; twice weekly schedule, one melanoma, one thyroid cancer, Shapiro et al. 2010",two of the original twenty one patients
same,objective and durable partial response and stable disease,refractory solid tumours,five patients
same,efficacy in melanoma models,[6],effective
